Measured values taken from PubChem BioAssay AID256 (DTP/NCI, 2004).
Values joined by “and” are separate entries in the source; they are usually repeats but may differ in a detail not shown here. Equal entries are not always repeated. Inconclusive results and toxic doses are left out. Rule for the calls: active = survival T/C of 150% or more; inactive = T/C below 125% in these data.

Test system: CD2F1 mice, L1210 leukemia ip, survival T/C
Experiment: NCI In Vivo Anticancer Drug Screen. Data for tumor model L1210 Leukemia (intraperitoneal) in CD2F1 (CDF1) mice
Details: higher = longer survival
In short: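 Compound-dosed mice with transplantable tumor versus matched vehicle controls; endpoint ratio T/C reported.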

[1] = endpoint: mean survival time, dose: 100.0 mg/kg/injection, schedule: Q04DX003 (ip), vehicle: saline with Tween-80
[2] = endpoint: mean survival time, dose: 200.0 mg/kg/injection, schedule: Q04DX003 (ip), vehicle: saline with Tween-80
[3] = endpoint: mean survival time, dose: 400.0 mg/kg/injection, schedule: Q04DX003 (ip), vehicle: saline with Tween-80
[4] = endpoint: mean survival time, dose: 75.0 mg/kg/injection, schedule: Q01DX001 (ip), vehicle: saline
[5] = endpoint: mean survival time, dose: 150.0 mg/kg/injection, schedule: Q01DX001 (ip), vehicle: saline
[6] = endpoint: mean survival time, dose: 100.0 mg/kg/injection, schedule: Q01DX009 (ip), vehicle: saline with Tween-80
[7] = endpoint: mean survival time, dose: 200.0 mg/kg/injection, schedule: Q01DX009 (ip), vehicle: saline with Tween-80
[8] = endpoint: mean survival time, dose: 400.0 mg/kg/injection, schedule: Q01DX009 (ip), vehicle: saline with Tween-80
[9] = endpoint: mean survival time, dose: 100.0 mg/kg/injection, schedule: Q04DX003 (ip), vehicle: saline
[10] = endpoint: median survival time, dose: 25.0 mg/kg/injection, schedule: Q01DX009 (ip), vehicle: saline with Tween-80
[11] = endpoint: median survival time, dose: 50.0 mg/kg/injection, schedule: Q01DX009 (ip), vehicle: saline with Tween-80
[12] = endpoint: median survival time, dose: 100.0 mg/kg/injection, schedule: Q01DX009 (ip), vehicle: saline with Tween-80
[13] = endpoint: median survival time, dose: 200.0 mg/kg/injection, schedule: Q01DX009 (ip), vehicle: saline with Tween-80
[14] = endpoint: mean survival time, dose: 100.0 mg/kg/injection, schedule: Q04DX002 (ip), vehicle: saline with Tween-80
[15] = endpoint: mean survival time, dose: 200.0 mg/kg/injection, schedule: Q04DX002 (ip), vehicle: saline with Tween-80
[16] = endpoint: mean survival time, dose: 400.0 mg/kg/injection, schedule: Q04DX002 (ip), vehicle: saline with Tween-80
[17] = endpoint: mean survival time, dose: 25.0 mg/kg/injection, schedule: Q01DX005 (ip), vehicle: water
[18] = endpoint: mean survival time, dose: 50.0 mg/kg/injection, schedule: Q01DX005 (ip), vehicle: water
[19] = endpoint: mean survival time, dose: 100.0 mg/kg/injection, schedule: Q01DX005 (ip), vehicle: water
[20] = endpoint: mean survival time, dose: 200.0 mg/kg/injection, schedule: Q01DX005 (ip), vehicle: water

Measured: T/C

CS/C([S-])=N/N=C\c1ccccn1.CS/C([S-])=N/N=C\c1ccccn1.[Fe+2]
inactive: [1] 103 % of control | [2] 91 % of control | [3] 91 % of control

FC1(F)C(Cl)=[C]([Hg][C]2=C(Cl)C(F)(F)C(F)(F)C(F)(F)C2(F)F)C(F)(F)C(F)(F)C1(F)F
inactive: endpoint: mean survival time, dose: 37.5 mg/kg/injection, schedule: Q04DX003 (ip), vehicle: saline 104 % of control | [4] 106 % of control | endpoint: mean survival time, dose: 75.0 mg/kg/injection, schedule: Q04DX003 (ip), vehicle: saline 97 % of control | [5] 95 % of control

Cc1ccc(Cl)cc1N=Cc1ccccc1O
inactive: [6] 98 % of control | endpoint: mean survival time, dose: 132.0 mg/kg/injection, schedule: Q04DX003 (ip), vehicle: saline with Tween-80 110 % of control | [7] 94 % of control | [2] 102 % of control | endpoint: mean survival time, dose: 300.0 mg/kg/injection, schedule: Q04DX003 (ip), vehicle: saline with Tween-80 100 % of control | [8] 97 % of control

COc1ccc(C(Sc2ccccc2)c2ccc(OC)cc2)cc1
inactive: [6] 95 % of control | [1] 95 % of control | [7] 90 % of control | [2] 95 % of control | [8] 86 % of control | [3] 96 % of control

CC(=O)Nc1nc(Br)c2ccccc2c1-c1ccc(N(CCOS(C)(=O)=O)CCOS(C)(=O)=O)cc1
inactive: endpoint: mean survival time, dose: 12.5 mg/kg/injection, schedule: Q04DX003 (ip), vehicle: DMSO 105 % of control | endpoint: mean survival time, dose: 25.0 mg/kg/injection, schedule: Q04DX003 (ip), vehicle: DMSO 105 % of control | endpoint: mean survival time, dose: 50.0 mg/kg/injection, schedule: Q04DX003 (ip), vehicle: DMSO 110 % of control | endpoint: mean survival time, dose: 100.0 mg/kg/injection, schedule: Q04DX003 (ip), vehicle: DMSO 121 % of control

COc1ccc(-c2nc(N)nc3c2CN(CCC(=O)O)C3=O)cc1
inactive: [9] 102 % of control | endpoint: mean survival time, dose: 200.0 mg/kg/injection, schedule: Q04DX003 (ip), vehicle: saline 100 % of control | endpoint: mean survival time, dose: 400.0 mg/kg/injection, schedule: Q04DX003 (ip), vehicle: saline 102 % of control

Cc1ccc2c(c1)=N/C(=N\c1nc(O)c(O)[nH]1)N=2
inactive: [6] 104 % of control | [7] 92 % of control | [8] 104 % of control

CCN(CC)C(=O)c1ccc[n+](Cc2ccc(Cl)cc2)c1
inactive: [9] 102 % of control

O=C(Nc1ccccc1[N+](=O)[O-])c1ccc(C(=O)Nc2ccccc2[N+](=O)[O-])cc1
inactive: [4] 87 % of control | [5] 96 % of control | endpoint: mean survival time, dose: 300.0 mg/kg/injection, schedule: Q01DX001 (ip), vehicle: saline 91 % of control

O=C(NC1CC1(c1ccccc1)c1ccccc1)NC1CC1(c1ccccc1)c1ccccc1 (configuration not stated)
inactive: endpoint: mean survival time, dose: 9.35 mg/kg/injection, schedule: Q01DX001 (ip), vehicle: other 93 % of control | endpoint: mean survival time, dose: 18.7 mg/kg/injection, schedule: Q01DX001 (ip), vehicle: other 91 % of control | endpoint: mean survival time, dose: 37.5 mg/kg/injection, schedule: Q01DX001 (ip), vehicle: other 94 % of control

CCCCCC(O)CCCCC
inactive: [1] 98 % of control | [2] 94 % of control | [3] 98 % of control

O=C(CCCCCCC(=O)ON1C(=O)CCC1=O)ON1C(=O)CCC1=O
inactive: [10] 102 % of control | [11] 102 % of control | [12] 103 % of control | [13] 102 % of control

O=C1CC2CC1C1C3CCC(CC3)C21 (configuration not stated)
inactive: endpoint: mean survival time, dose: 3.13 mg/kg/injection, schedule: Q01DX009 (ip), vehicle: saline with Tween-80 86 % of control | endpoint: mean survival time, dose: 6.25 mg/kg/injection, schedule: Q01DX009 (ip), vehicle: saline with Tween-80 101 % of control | endpoint: mean survival time, dose: 12.5 mg/kg/injection, schedule: Q01DX009 (ip), vehicle: saline with Tween-80 90 % of control and 98 % of control

CCCCCCCCCCCCOc1ccc(Cl)cc1
inactive: [14] 90 % of control | [15] 98 % of control | [16] 90 % of control

O=C1/C(=C/c2ccccc2)CCCC1/C=C/c1ccccc1 (configuration not stated)
inactive: [1] 100 % of control | [2] 100 % of control | [3] 97 % of control

O=C/C=C/c1ccc([N+](=O)[O-])cc1
inactive: endpoint: mean survival time, dose: 100.0 mg/kg/injection, schedule: Q04DX003 (ip), vehicle: Klucel (hydroxypropylcellulose) (HPC) 90 % of control | endpoint: mean survival time, dose: 200.0 mg/kg/injection, schedule: Q04DX003 (ip), vehicle: Klucel (hydroxypropylcellulose) (HPC) 90 % of control

COc1ccc(Cc2ccc(O)cc2)cc1
inactive: endpoint: mean survival time, dose: 100.0 mg/kg/injection, schedule: Q01DX009 (ip), vehicle: other 101 % of control | endpoint: mean survival time, dose: 200.0 mg/kg/injection, schedule: Q01DX009 (ip), vehicle: other 101 % of control | endpoint: mean survival time, dose: 400.0 mg/kg/injection, schedule: Q01DX009 (ip), vehicle: other 104 % of control

C[SeH]C.C[SeH]C.[Cl][Pt][Cl]
inactive: endpoint: mean survival time, dose: 0.94 mg/kg/injection, schedule: Q04DX003 (ip), vehicle: saline 100 % of control | endpoint: mean survival time, dose: 1.88 mg/kg/injection, schedule: Q04DX003 (ip), vehicle: saline 97 % of control | endpoint: mean survival time, dose: 3.75 mg/kg/injection, schedule: Q04DX003 (ip), vehicle: saline 97 % of control | endpoint: mean survival time, dose: 7.5 mg/kg/injection, schedule: Q04DX003 (ip), vehicle: saline 100 % of control | endpoint: mean survival time, dose: 15.0 mg/kg/injection, schedule: Q04DX003 (ip), vehicle: saline 100 % of control | endpoint: mean survival time, dose: 30.0 mg/kg/injection, schedule: Q04DX003 (ip), vehicle: saline 105 % of control

O=CNCCc1ccc2c(c1)[nH]c1ccccc12
inactive: endpoint: mean survival time, dose: 100.0 mg/kg/injection, schedule: Q01DX001 (ip), vehicle: saline 95 % of control | endpoint: mean survival time, dose: 200.0 mg/kg/injection, schedule: Q01DX001 (ip), vehicle: saline 98 % of control | endpoint: mean survival time, dose: 400.0 mg/kg/injection, schedule: Q01DX001 (ip), vehicle: saline 98 % of control

CCN(CC)Cc1cccc(Nc2cc(C)nc(/N=C(\N)Nc3ccc(Cl)c(Cl)c3)n2)c1
inactive: endpoint: mean survival time, dose: 9.5 mg/kg/injection, schedule: Q01DX001 (ip), vehicle: other 102 % of control | endpoint: mean survival time, dose: 19.0 mg/kg/injection, schedule: Q01DX001 (ip), vehicle: other 96 % of control | endpoint: mean survival time, dose: 38.0 mg/kg/injection, schedule: Q01DX001 (ip), vehicle: other 95 % of control

Cc1ccc(S(=O)(=O)OCC2C3CC(c4ccccc43)C2COS(=O)(=O)c2ccc(C)cc2)cc1 (configuration not stated)
inactive: [14] 102 % of control | [15] 111 % of control | [16] 95 % of control

CCOC(=O)CN/N=C(\N)CSS(=O)(=O)O
inactive: [1] 97 % of control | [2] 97 % of control | [3] 100 % of control

Cc1ccc(C(=O)CC#N)c(C)c1
inactive: [6] 96 % of control | [1] 98 % of control | [2] 112 % of control | [8] 90 % of control | [3] 102 % of control

CCCCCCCCCCCCNC(=O)c1cc[n+](Cc2ccc(Cl)c(Cl)c2)cc1
inactive: [1] 103 % of control | [2] 96 % of control | [3] 94 % of control

Cn1c(=O)c2c(ncn2CCSS(=O)(=O)O)n(C)c1=O
inactive: endpoint: mean survival time, dose: 12.5 mg/kg/injection, schedule: Q01DX005 (ip), vehicle: water 100 % of control | [17] 94 % of control | [18] 102 % of control | [19] 100 % of control | [20] 98 % of control

CCC(=O)NC1=CC(=O)c2ccccc2C1=O
inactive: endpoint: mean survival time, dose: 25.0 mg/kg/injection, schedule: Q01DX009 (ip), vehicle: saline with Tween-80 101 % of control | endpoint: mean survival time, dose: 50.0 mg/kg/injection, schedule: Q01DX009 (ip), vehicle: saline with Tween-80 100 % of control

OCC1OC(n2ncc3c2nnn2ncnc32)C(O)C1O (configuration not stated)
inactive: [17] 92 % of control | [18] 99 % of control | [19] 94 % of control | [20] 87 % of control | endpoint: mean survival time, dose: 400.0 mg/kg/injection, schedule: Q01DX005 (ip), vehicle: water 113 % of control

COc1cc(O)cc(OC)c1
inactive: endpoint: mean survival time, dose: 25.0 mg/kg/injection, schedule: Q04DX003 (ip), vehicle: saline 103 % of control | endpoint: mean survival time, dose: 50.0 mg/kg/injection, schedule: Q04DX003 (ip), vehicle: saline 102 % of control | [9] 100 % of control

O=C(Oc1ccccc1)c1cc(O)c(O)c(O)c1
inactive: [10] 101 % of control | [11] 98 % of control | [12] 105 % of control | [13] 112 % of control
